In patent US20240325544A1, “CATIONIC LIPID FOR COVALENT MODIFICATION OF PEPTIDES” (PharmalN Corporation, priority 2023, published 2024):
Bridge positions count the residues as written; N and C are the ends. Square brackets hold non-standard residues; d marks the D form. Peptide text beside a SMILES is read from it. * marks the point of attachment. Palmitoyl = CCCCCCCCCCCCCCCC(=O)*; Dap = NC[C@H](N)C(=O)O; AEEA = NCCOCCOCC(=O)O

System: C57BL/6J mice
Test: Acute exacerbation of idiopathic pulmonary fibrosis (IPF-AE) model, bleomycin + LPS (FIG. 5)
Format: in vivo
Conditions: Bleo 1.0 mg/kg IT, LPS 0.025 mg/kg IT; 0.3 mg/kg SC day before, of and after LPS
Experimental: FIGS. 5A-5E: The effect of cationic alkyl modified CNP derivatives in inflammation status of acute exacerbation of idiopathic pulmonary fibrosis (IPF-AE). Error bars indicate standard error of the mean. Increased inflammatory status in lung, especially increase of neutrophils, MCP1, IL-6, are seen in IPF-AE. Its decrease indicates resolution of IPF-AE. […] After 3 weeks, mice were treated with LPS (0.025 mg/kg IT) and treated SC with SEQ ID NO: 29 or 31 at 0.3 mg/kg (0.1 μmol/kg) the day before, of, and after LPS treatment as shown in the diagram. Additionally, a normal control (NC) group without LPS/Bleo treatment, a Bleo group without LPS treatment, and a Control group without test article treatment were also included. […]
Animal care and treatment: Male C57BL/6J mice (6 weeks-old) were purchased from Kyudo (Saga, Japan) and maintained under a 12-hour light/12-hour dark cycle with free access to water and standard mouse diet (MF diet, Oriental Yeast Co., Ltd. Tokyo, Japan). […] Lung weight/body weight ratio increase is a commonly measured parameter that indicates lung damage. […] The expression of MPO was assessed by Image J (NIH, Bethesda, MD, USA). […] Macrophage chemoattractant protein-1 (MCP1) was measured by using ELISA kit (R&D SYSTEMS, Minneapolis M N). […] The gene expression levels of IL-6 were measured with qRT-PCR-analysis by using cDNA synthesis kit (Qiagen; Venlo, the Netherlands). […]

CCCCCCCCCCCCCCCC(=O)NCCOCCOCC(=O)NCCOCCOCC(=O)NCCOCCOCC(=O)N[C@@H](CN)C(=O)N[C@@H](CN)C(=O)NCC(=O)N[C@@H](CC(C)C)C(=O)N[C@@H](CO)C(=O)N[C@@H](CCCCN)C(=O)NCC(=O)N[C@H]1CSSC[C@@H](C(=O)O)NC(=O)CNC(=O)[C@H](CC(C)C)NC(=O)CNC(=O)[C@H](CO)NC(=O)[C@H](CCC(N)=O)NC(=O)[C@H](CO)NC(=O)CNC(=O)[C@H]([C@@H](C)CC)NC(=O)[C@H](CCCNC(=N)N)NC(=O)[C@H](CC(=O)O)NC(=O)[C@H](CC(C)C)NC(=O)[C@H](CCCCN)NC(=O)[C@H](CC(C)C)NC(=O)CNC(=O)[C@H](Cc2ccccc2)NC1=O [SEQ ID NO: 31] ({Palmitoyl-AEEA-AEEA-AEEA}-[Dap][Dap]GLSKGCFGLKLDRIGSQSGLGC-OH; disulfide 8-24; C-terminus assumed)
MCP1 in lung: significant decrease of MCP1
